Experimental data: patent US20180094320A1, “IN VITRO DRUG METABOLISM REAGENT AND USES THEREOF” (priority 2016, published 2018)
Read-outs that look alike come from different tables or passages of the source.

Experiments:
[1] = known in vivo hepatic clearance, human; cited from earlier work
human enterocytes = assay: 7-ethoxycoumarin O-deethylation (ECOD) activity in human enterocytes; type: in vitro ADME; conditions: Group D permeabilized enterocytes with cofactors compared with Groups A-C (intact ± cofactors, permeabilized without cofactors)
Method: The assay was performed essentially as disclosed in Example 2, wherein the in vitro reagent comprises enterocytes and exogenous drug metabolizing enzyme co-factors (NADPH, UPGA, and PAPS), herein referred to as “cofactors”. As comparators, intact enterocytes, that were not permeabilized, were used wherein one group was incubated with cofactors and another group was incubated without cofactors, each in the presence of the xenobiotic test compound. Permeabilized enterocytes incubated without cofactors were used as a control. The test groups were: Group A—intact enterocytes incubated without cofactors; Group B—intact enterocytes incubated with cofactors; Group C—permeabilized enterocytes incubated without cofactors (control); Group D—the in vitro reagent (permeabilized enterocytes incubated with cofactors). […] Permeabilization (by freezing without cryoprotectants followed by thawing) allows maximal interaction of the intracellular enzymes with the substrate (7-ethoxycoumarin), and the addition of cofactors overcomes the dilution of intracellular cofactors due to permeabilization.

[2] = test system: permeabilized human hepatocytes
Method: The drugs evaluated were added at a concentration of 1 μM to a hepatocyte culture of 1 million cells/ml.

[3] = test system: permeabilized human hepatocytes; assay: Cofactor-directed metabolic pathway selection of coumarin metabolism; type: in vitro ADME; conditions: 75 micromolar coumarin, 30 min
Method: Intact human hepatocytes allow metabolism of a drug by all hepatic pathways, selection of a specific metabolic pathway for evaluation is not easily accomplished. […] The metabolism of coumarin was used as a model for cofactor directed metabolic pathway selection. See FIG. 12 for the co-factor directed pathway selection of coumarin metabolism with the present permeabilized human hepatocytes. The exogenous drug metabolizing enzyme co-factors used were 2 mM NADPH, 2 mM NADPH+1 mM PAPS and 2 mM NADPH+5 mM […], and no cofactor addition used as a control.

2J2 = target: T1, 2J2 (Homo sapiens, UniProt P51589); assay: Pathway-selective substrate metabolism in human enterocytes, 2J2; type: in vitro ADME; conditions: Intact Cryopreserved Enterocytes; 30 min, 37° C.
T1 construct: enterocytes are isolated from human intestines by collagenase digestion; endogenous in cells; host or cells: primary human enterocytes, intact or permeabilized with cofactors
T1 sequence (P51589 1-502): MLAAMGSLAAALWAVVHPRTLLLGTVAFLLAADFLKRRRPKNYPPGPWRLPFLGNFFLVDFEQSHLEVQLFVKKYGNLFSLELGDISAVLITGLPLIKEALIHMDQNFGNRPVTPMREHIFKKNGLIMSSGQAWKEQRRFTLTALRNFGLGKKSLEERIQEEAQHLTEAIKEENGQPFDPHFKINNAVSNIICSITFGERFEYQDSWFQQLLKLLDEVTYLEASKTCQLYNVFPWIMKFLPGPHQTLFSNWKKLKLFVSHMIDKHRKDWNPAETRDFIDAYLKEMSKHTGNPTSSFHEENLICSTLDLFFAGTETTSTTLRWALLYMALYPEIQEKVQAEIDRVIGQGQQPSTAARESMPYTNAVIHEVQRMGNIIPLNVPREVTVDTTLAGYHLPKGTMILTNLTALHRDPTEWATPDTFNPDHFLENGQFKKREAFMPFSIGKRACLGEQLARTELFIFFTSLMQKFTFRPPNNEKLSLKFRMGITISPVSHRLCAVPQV

Compound	Observed in vivo CIsys [1]	further results
CC(C)NCC(O)COc1ccc(CCOCC2CC2)cc1 (stereo not drawn) [Betaxolol]	4.8 mL/min/kg	
CCOc1ccc2ccc(=O)oc2c1 [7-ethoxycoumarin]		7-ethoxycoumarin O-deethylation (ECOD) activity (human enterocytes): Highest activity
COc1ccc2c(c1)[C@]13CCCC[C@@H]1[C@H](C2)N(C)CC3 [Dextromethorphan]	8.6 mL/min/kg	Permeabilized Hepatocytes Average (predicted clearance) [2]: 7.3
CN1C(=O)CN=C(c2ccccc2)c2cc(Cl)ccc21 [Diazepam]	0.4 mL/min/kg	
O=C1Nc2ccc(Cl)cc2C(c2ccccc2Cl)=NC1O (stereo not drawn) [Lorazepam]	1.1 mL/min/kg	
CN(C)C/C=C/C(=O)Nc1cc2c(Nc3ccc(F)c(Cl)c3)ncnc2cc1O[C@H]1CCOC1 [Afatinib]	15 mL/min/kg	
O=C(O)Cc1ccccc1Nc1c(Cl)cccc1Cl [Diclofenac]	4.2 mL/min/kg	
NC(=O)N1c2ccccc2C=Cc2ccccc21 [Carbamazepine]	0.4 mL/min/kg	
O=c1ccc2ccccc2o1 [coumarin]		Cofactor selection Result (metabolite formation) ([3]; NADPH only (2 mM)): minimal sulfation and glucuronidation; Cofactor selection Result (metabolite formation) ([3]; No co-factors): No metabolism
COc1ccc(CCN2CCC(Nc3nc4ccccc4n3Cc3ccc(F)cc3)CC2)cc1 [Astemizole]		Metabolic Activity, O-Demethyl Astemizole formation (2J2): BLQ
Cc1cc(=O)n(-c2ccccc2)n1C [Antipyrine]	0.5 mL/min/kg	
O=P1(N(CCCl)CCCl)NCCCO1 (stereo not drawn) [Cyclophosphamide]		cytotoxicity on HEK 293 cells (cellular ATP content) (HEK293 cells; with permeabilized human hepatocytes (cofactor supplemented) vs boiled or no hepatocytes, 24 hours): enhanced
O=P1(NCCCl)OCCCN1CCCl (stereo not drawn) [Ifosfamide]		cytotoxicity on HEK 293 cells (cellular ATP content) (HEK293 cells): enhanced
